Each structure is given as a SMILES string.

IC50 data for 1 compound are collected here from PMC9728921, “Characterization of a KDM5 small molecule inhibitor with antiviral activity against hepatitis B virus” (PLOS ONE, 2022).

For one test, the target named is T1, G9a (Homo sapiens, UniProt Q96KQ7).
T1 construct: 786-1210; purchased RBC (read as Reaction Biology Corporation, named)
In words: Histone methyltransferase enzymatic assay, G9a. It is filed as biochemical. To be noted: enzyme conc. 100 nM. As for the experimental part:
(§1) Histone methyltransferase assays were performed in 96-well half-area optiplates (PerkinElmer) at room temperature. All concentrations are final unless noted otherwise. Compounds were serially diluted in DMSO and the final DMSO concentration was 1%. A 24 μL reaction mixture contained compound, enzyme, 200 nM of nucleosome or histone substrate, 400 nM ^3H-SAM (83.1 Ci/mmol), 50 mM Tris-HCl (pH 8.0), 50 mM NaCl, 5 mM MgCl2, 1 mM DTT, and 0.01% Tween-20. The plate was sealed, mixed on a Titramax plate shaker at 1200 rpm for 30 sec, and incubated at room temperature for 60 min. The reaction was quenched by addition of 24 μL mixture containing 5 mg/mL PVT-PEI beads and 300 μM unlabeled SAM in water. The plate was sealed, mixed as previously noted, incubated overnight, and read on a TopCount plate reader (PerkinElmer).
(§2) Data was analyzed using GraphPad Prism 6.0 (La Jolla, CA). […] IC50 values were calculated as an average of at least two independent experiments.

The target in another test is T2, SETDB1 (Homo sapiens, UniProt Q15047).
T2 construct: 510-1290
In words: Histone methyltransferase enzymatic assay, SETDB1. It is filed as biochemical. To be noted: enzyme conc. 100 nM. As for the experimental part:
as §1, §2

T1 sequence (Q96KQ7 786-1210): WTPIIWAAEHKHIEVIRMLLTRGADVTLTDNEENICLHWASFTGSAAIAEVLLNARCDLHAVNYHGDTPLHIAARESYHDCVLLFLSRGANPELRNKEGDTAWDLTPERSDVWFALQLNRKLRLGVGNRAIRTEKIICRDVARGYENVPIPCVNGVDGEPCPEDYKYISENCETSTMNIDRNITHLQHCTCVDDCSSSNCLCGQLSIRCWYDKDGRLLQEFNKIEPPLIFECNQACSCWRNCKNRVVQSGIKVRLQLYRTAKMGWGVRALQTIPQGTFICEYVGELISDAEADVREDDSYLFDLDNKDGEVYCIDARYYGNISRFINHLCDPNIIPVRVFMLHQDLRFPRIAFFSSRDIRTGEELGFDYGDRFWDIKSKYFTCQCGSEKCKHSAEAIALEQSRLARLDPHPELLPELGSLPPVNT

Usually IC50 stands for the point on the concentration scale where inhibition reaches its midpoint. Lower therefore signals inhibition by little substance. With `CCN(CCN(C)C)C(=O)CNCc1cc(C(=O)O)ccn1` [GS-080], the IC50 against G9a and against SETDB1 was above 100 µM each time.
